# Results as given in PubChem BioAssay AID1259407 (Chemical Carcinogenesis Research Information System (CCRIS), 2018).
# Calls of active or inactive are those of the source. How the calls were made is not given here.
# Tested on: CCRIS mutagenicity, Ames/micronucleus/aberration tests
# Assay: CCRIS mutagenicity studies
# [1] = Test System: AMES SALMONELLA TYPHIMURIUM, Strain/Indicator: TA98, Metabolic Activation: NONE, Method: STANDARD PLATE
# [2] = Test System: AMES SALMONELLA TYPHIMURIUM, Strain/Indicator: TA98, Metabolic Activation: RAT, LIVER, S-9, PHENOBARBITAL, Method: STANDARD PLATE
# [3] = Test System: AMES SALMONELLA TYPHIMURIUM, Strain/Indicator: TA100, Metabolic Activation: NONE, Method: STANDARD PLATE
# [4] = Test System: AMES SALMONELLA TYPHIMURIUM, Strain/Indicator: TA100, Metabolic Activation: RAT, LIVER, S-9, PHENOBARBITAL, Method: STANDARD PLATE
# [5] = Test System: AMES SALMONELLA TYPHIMURIUM, Strain/Indicator: TA1537, Metabolic Activation: NONE, Method: STANDARD PLATE
# [6] = Test System: AMES SALMONELLA TYPHIMURIUM, Strain/Indicator: TA100, Metabolic Activation: NONE, Method: PREINCUBATION
# [7] = Test System: AMES SALMONELLA TYPHIMURIUM, Strain/Indicator: TA100, Metabolic Activation: RAT, LIVER, S-9, PCB, Method: PREINCUBATION
# [8] = Test System: AMES SALMONELLA TYPHIMURIUM, Strain/Indicator: TA1535, Metabolic Activation: NONE, Method: STANDARD PLATE
# [9] = Test System: AMES SALMONELLA TYPHIMURIUM, Strain/Indicator: TA98, Metabolic Activation: NONE, Method: PREINCUBATION
smiles,measurement,setting,value
Nc1ccc2c([nH]c3ccccc32)c1[N+](=O)[O-],mutagenic call,[1],active; positive
same,mutagenic call,[2],active; positive
same,mutagenic call,[3],active; positive
same,mutagenic call,[4],active; positive
same,mutagenic call,[5],active; positive
same,mutagenic call,"Test System: AMES SALMONELLA TYPHIMURIUM, Strain/Indicator: TA1537, Metabolic Activation: RAT, LIVER, S-9, PHENOBARBITAL, Method: STANDARD PLATE",active; positive
same,mutagenic call,"Test System: AMES SALMONELLA TYPHIMURIUM, Strain/Indicator: TA1538, Metabolic Activation: NONE, Method: STANDARD PLATE",active; positive
same,mutagenic call,"Test System: AMES SALMONELLA TYPHIMURIUM, Strain/Indicator: TA1538, Metabolic Activation: RAT, LIVER, S-9, PHENOBARBITAL, Method: STANDARD PLATE",active; positive
same,mutagenic call,"Test System: AMES SALMONELLA TYPHIMURIUM, Strain/Indicator: TA1977, Metabolic Activation: NONE, Method: STANDARD PLATE",inactive; negative
same,mutagenic call,"Test System: AMES SALMONELLA TYPHIMURIUM, Strain/Indicator: TA1977, Metabolic Activation: RAT, LIVER, S-9, PHENOBARBITAL, Method: STANDARD PLATE",active; positive
Cc1ccc(NO)c(C)c1,mutagenic call,[6],active; positive
same,mutagenic call,[7],active; positive
CCCCOc1cc(Cl)ccc1C(=O)NOC(C)=O,mutagenic call,[3],active; positive
same,mutagenic call,"Test System: AMES SALMONELLA TYPHIMURIUM, Strain/Indicator: TA100, Metabolic Activation: RAT, S-9, AROCLOR, Method: STANDARD PLATE",active; positive
C1=CC2OC2C=C1 (stereo unspecified),mutagenic call,[1],inactive; negative
same,mutagenic call,[2],inactive; negative
same,mutagenic call,[6],inactive; negative
same,mutagenic call,[3],inactive; negative
same,mutagenic call,"Test System: AMES SALMONELLA TYPHIMURIUM, Strain/Indicator: TA100, Metabolic Activation: RAT, LIVER, S-9, PHENOBARBITAL, Method: PREINCUBATION",active; positive
same,mutagenic call,[4],active; positive
same,mutagenic call,[8],inactive; negative
same,mutagenic call,"Test System: AMES SALMONELLA TYPHIMURIUM, Strain/Indicator: TM677/8-AZAGUANINE, Metabolic Activation: NONE, Method: PREINCUBATION",inactive; negative
same,mutagenic call,"Test System: AMES SALMONELLA TYPHIMURIUM, Strain/Indicator: TM677/8-AZAGUANINE, Metabolic Activation: NONE, Method: STANDARD PLATE",inactive; negative
same,mutagenic call,"Test System: AMES SALMONELLA TYPHIMURIUM, Strain/Indicator: TM677, Metabolic Activation: RAT, LIVER, S-9, PHENOBARBITAL, Method: PREINCUBATION",active; positive
O=C(CCl)Nc1snc2ccccc12,mutagenic call,[1],inactive; negative
same,mutagenic call,"Test System: AMES SALMONELLA TYPHIMURIUM, Strain/Indicator: TA98, Metabolic Activation: S-9, Method: STANDARD PLATE",active; positive
same,mutagenic call,[3],inactive; negative
same,mutagenic call,"Test System: AMES SALMONELLA TYPHIMURIUM, Strain/Indicator: TA100, Metabolic Activation: S-9, Method: STANDARD PLATE",active; positive
same,mutagenic call,[8],inactive; negative
same,mutagenic call,"Test System: AMES SALMONELLA TYPHIMURIUM, Strain/Indicator: TA1535, Metabolic Activation: S-9, Method: STANDARD PLATE",inactive; negative
same,mutagenic call,[5],active; positive
same,mutagenic call,"Test System: AMES SALMONELLA TYPHIMURIUM, Strain/Indicator: TA1537, Metabolic Activation: S-9, Method: STANDARD PLATE",active; positive
CNc1ccc2nc(C)c(C)nc2c1C,mutagenic call,[9],inactive; negative
same,mutagenic call,"Test System: AMES SALMONELLA TYPHIMURIUM, Strain/Indicator: TA98, Metabolic Activation: RAT, LIVER, S-9, PCB, Method: PREINCUBATION",active; positive
same,mutagenic call,[6],inactive; negative
same,mutagenic call,[7],active; positive
O=[N+]([O-])c1cc2[nH]c3ccc4c(O)cccc4c3c2c2ccccc12,mutagenic call,[1],active; positive
same,mutagenic call,"Test System: AMES SALMONELLA TYPHIMURIUM, Strain/Indicator: TA98, Metabolic Activation: RAT, LIVER, S-9, 3-METHYLCHOLANTHRENE, Method: STANDARD PLATE",active; positive
same,mutagenic call,[3],active; positive
same,mutagenic call,"Test System: AMES SALMONELLA TYPHIMURIUM, Strain/Indicator: TA100, Metabolic Activation: RAT, LIVER, S-9, 3-METHYLCHOLANTHRENE, Method: STANDARD PLATE",active; positive
CC(C)(C)OO,mutagenic call,"End Point: In vitro micronucleus, Test System: Chinese hamster V79 cells, Metabolic Activation: None",active; positive (hibiscus tiliaceus l methanolic extract at doses above 0.010 mg/ml had
same,mutagenic call,"Test System: AMES SALMONELLA TYPHIMURIUM, Strain/Indicator: TA98, Metabolic Activation: HAMSTER, LIVER, S-9, AROCLOR 1254, Method: PREINCUBATION",inactive; negative
same,mutagenic call,[9],inactive; negative
same,mutagenic call,"Test System: AMES SALMONELLA TYPHIMURIUM, Strain/Indicator: TA98, Metabolic Activation: RAT, LIVER, S-9, AROCLOR 1254, Method: PREINCUBATION",inactive; negative
same,mutagenic call,"Test System: AMES SALMONELLA TYPHIMURIUM, Strain/Indicator: TA100, Metabolic Activation: HAMSTER, LIVER, S-9, AROCLOR 1254, Method: PREINCUBATION",inactive; negative
same,mutagenic call,[6],inactive; negative
same,mutagenic call,"Test System: AMES SALMONELLA TYPHIMURIUM, Strain/Indicator: TA100, Metabolic Activation: RAT, LIVER, S-9, AROCLOR 1254, Method: PREINCUBATION",inactive; negative
same,mutagenic call,"Test System: AMES SALMONELLA TYPHIMURIUM, Strain/Indicator: TA102, Metabolic Activation: NONE, Method: STANDARD PLATE",active; positive
same,mutagenic call,"Test System: AMES SALMONELLA TYPHIMURIUM, Strain/Indicator: TA1535, Metabolic Activation: HAMSTER, LIVER, S-9, AROCLOR 1254, Method: PREINCUBATION",inactive; negative
same,mutagenic call,"Test System: AMES SALMONELLA TYPHIMURIUM, Strain/Indicator: TA1535, Metabolic Activation: NONE, Method: PREINCUBATION",inactive; negative
same,mutagenic call,"Test System: AMES SALMONELLA TYPHIMURIUM, Strain/Indicator: TA1535, Metabolic Activation: RAT, LIVER, S-9, AROCLOR 1254, Method: PREINCUBATION",inactive; negative
same,mutagenic call,"Test System: AMES SALMONELLA TYPHIMURIUM, Strain/Indicator: TA1537, Metabolic Activation: HAMSTER, LIVER, S-9, AROCLOR 1254, Method: PREINCUBATION",active; positive
same,mutagenic call,"Test System: AMES SALMONELLA TYPHIMURIUM, Strain/Indicator: TA1537, Metabolic Activation: NONE, Method: PREINCUBATION",active; positive
same,mutagenic call,"Test System: AMES SALMONELLA TYPHIMURIUM, Strain/Indicator: TA1537, Metabolic Activation: RAT, LIVER, S-9, AROCLOR 1254, Method: PREINCUBATION",active; positive
same,mutagenic call,"Test System: AMES SALMONELLA TYPHIMURIUM, Strain/Indicator: TA2638, Metabolic Activation: NONE, Method: STANDARD PLATE",active; positive
same,mutagenic call,"Test System: AMES SALMONELLA TYPHIMURIUM, Strain/Indicator: TA2638A, Metabolic Activation: NONE, Method: STANDARD PLATE",active; positive
same,mutagenic call,"Test System: E. COLI, Strain/Indicator: IC202, Metabolic Activation: NONE, Method: STANDARD PLATE",active; positive
same,mutagenic call,"Test System: E. COLI, Strain/Indicator: IC203, Metabolic Activation: NONE, Method: STANDARD PLATE",active; positive
same,mutagenic call,"Test System: E. COLI, Strain/Indicator: IC5059, Metabolic Activation: NONE, Method: STANDARD PLATE",active; positive
same,mutagenic call,"Test System: E. COLI, Strain/Indicator: IC5064, Metabolic Activation: NONE, Method: STANDARD PLATE",active; positive
same,mutagenic call,"Test System: E. COLI, Strain/Indicator: IC5184, Metabolic Activation: NONE, Method: STANDARD PLATE",active; positive
same,mutagenic call,"Test System: E. COLI, Strain/Indicator: IC5185, Metabolic Activation: NONE, Method: STANDARD PLATE",active; positive
same,mutagenic call,"Test System: E. COLI, Strain/Indicator: WP2 (PKM101), Metabolic Activation: NONE, Method: STANDARD PLATE",active; positive
same,mutagenic call,"Test System: E. COLI, Strain/Indicator: WP2 UVRA (PKM101), Metabolic Activation: NONE, Method: STANDARD PLATE",active; positive
same,mutagenic call,"Test System: E. coli, Strain/Indicator: WP2 IC185 trpE65, Metabolic Activation: None, Method: Plate incorporation (Test material solvent: 1 x M9 buffer)","active; positive. linalool, myrcene and eycalyptol did not inhibit mutagenesis."
same,mutagenic call,"Test System: E. coli, Strain/Indicator: WP2 IC202 trpE65 oxyR/pKM101, Metabolic Activation: None, Method: Plate incorporation (Test material solvent: 1 x M9 buffer)","active; positive. linalool, myrcene and eycalyptol inhibited mutagenesis."
